From BindingDB's records for PubMed 36966976 (Csir-Indian Institute of Chemical Technology (CSIR-IICT), 2023) come the findings set out here.

In this test the target is Alpha-synuclein (Homo sapiens, UniProt P37840).

The Kd is the constant that tells how readily two partners part at equilibrium. A low value points to a tighter complex. `OCCOC(=C\C=C1N(c2ccccc2)c2cc3ccccc3cc2N1c1ccccc1)/C=C/c1n(-c2ccccc2)c2cc3ccccc3cc2[n+]1-c1ccccc1` had a dissociation constant (Kd) of 3.8 nM.
